In publication PMC11513920, “Building Metabolically Stable and Potent Anti-HIV Thioether-Lipid Analogues of Tenofovir Exalidex: A thorough Pharmacological Analysis” (Journal of Medicinal Chemistry, 2024):
Values joined by “and” are separate entries in the source; they are usually repeats but may differ in a detail not shown here. Equal entries are not always repeated.

Tests used:
HepaRG cells = assay: HepaRG cellular uptake; conditions: for mean prodrug concentration in HepaRG cells: 20 µM; for HepaRG Cmax: 20 μM, HSA formulation 5:1, recorded after 3 h incubation
Description: (§9) Naturally, due the metabolic complexity of HepaRG cells, we specifically analyzed prodrug cellular uptake and stability, as represented by Cmax and intrinsic clearance (Clint,u) accordingly (Figure 7 and Table 9).
(§10) The HepaRG cell line (HPRGC10, Thermo Fisher Scientific) was used to evaluate the cellular permeability and metabolic stability for select final compounds in vitro. The cells were initially thawed with working media composed of HepaRG Thaw, Plate, & General Purpose Medium Supplement (HPRG670), Williams Medium E (100 mL), and GlutaMax (1 mL), all purchased from Thermo Fisher Scientific. […] After the thawing medium was aspirated from each well, the cells were cultured for an additional 6 days with working media consisting of HepaRG Maintenance/Metabolism Medium Supplement (HPRG720), Williams Medium E (500 mL), and GlutaMax (1 mL), all purchased from Thermo Fisher Scientific. Upon completing the 7-day culture period, HepaRG cells were plated in enough wells to allow for duplicate analysis of prodrugs in two independent cellular uptake or metabolic stability experiments. All studied compounds were formulated with human serum albumin (HSA, 5:1 compound to HSA molar ratio) and subsequently diluted to a 20 μM final concentration with assay medium composed of serum-free INVITROGRO HI Medium and TORPEDO Antibiotic Mix purchased from BioIVT. For cellular uptake determinations, the maintenance/metabolism medium was first aspirated from each well, and then the plated cells were spiked with 1.0 mL of test compound stock solution. Subsequently, the plate was incubated at 37 °C under 5% CO2 environment over the desired time course (seven data points/compound). Blank wells not treated with prodrug were included in assay runs as controls and initial time points (0 min). At each time point, the test compound solution was removed from the appropriate wells, and the plated cells were washed with 1.0 mL of DPBS twice. The HepaRG cells were then extracted with 500 μL of cold ISTD solution (1 μM 7-ethoxy-d5-coumarin in 70/30 MeOH/H2O), and the quenched aliquots were centrifuged at 15,000 g for 10 min at 4 °C. […] After obtaining prodrug Cmax and Tmax values from the cellular uptake assay, HepaRG metabolic stability was then assessed. Following the initial 7-day culture procedure, the maintenance/metabolism medium was aspirated from each well, and the plated cells were spiked with 1.0 mL of test compound stock solution. […] The test compound solution was then removed from each well and replaced with untreated dilution medium (i.e., serum-free INVITROGRO HI Medium and TORPEDO Antibiotic Mix), initializing the stability determination. The HepaRG plate was once more incubated at 37 °C under 5% CO2 atmosphere over the desired time course (nine data points/compound), and sample preparation and analysis were handled in identical fashion to cellular uptake experiments.

HepaRG cellular uptake = conditions: human, HepaRG Cmax, 20 μM, HSA formulation 5:1, recorded after 3 h incubation
Description: as §9, §10

[1] = Human liver microsome stability; conditions: for remaining at 2 h, 3 μM / half-life at 3 μM: human, microsomes; for remaining at 2 h, 3 μM: HLM % remaining, relative percent remaining of prodrug at 120 min; for half-life at 3 μM: HLM t1/2, HLM 1 mg/mL
Description: (§1) Human liver microsomes (HLMs, 20 mg/mL) and CD-1 mouse liver microsomes (MLMs, 20 mg/mL) were purchased from Xenotech. NADPH was purchased from Sigma-Aldrich and prepared in 10 mM stock solutions of distilled H2O (Invitrogen UltraPure). […] Test compounds and positive controls were initially dissolved in MeOH to make 10 mM stock solutions. Sample solutions were then further diluted in 70/30 MeOH/H2O to 500 μM. Next, the reactions were prepared by mixing human or mouse liver microsomes (55 μL) with potassium phosphate buffer (100 mM, 928 μL) in 1.5 mL Eppendorf tubes. The test compounds (6.6 μL of 500 μM solution) were subsequently added to the suspensions, and the reaction mixtures were incubated at 37 °C for 5 min. Afterward, the liver microsome reactions were initiated with 110 μL of 10 mM NADPH and further incubated at 37 °C for the designated time course of the study. […] Each test compound was run in tandem with positive and negative control experiments for quality assurance. Positive control reactions were conducted at a final volume of 550 μL for a single run of each time point.
(§2) For both LM and plasma stability assays, each data point was analyzed in duplicate using in-between blank washes to avoid carry over and to equilibrate the column for the subsequent runs. Averages of these duplicate for individual compounds at each time point were then normalized to the data at 0 min, representing 100% test compound remaining or 0% metabolism. Half-lives (t1/2) were calculated by plotting ln of % test compound remaining versus time and performing linear regression to determine slope.
(§3) Metabolic Stability Assays
(§4) Liver Microsome Stability
(§5) Liver Microsome Stability Assay Setup Example
(§6) Quenching Mixture: 100 µL MeOH with ISTD (2 µM d5-7-ethoxycoumarin).
(§7) Final Volume After Quenching: 200 µL (100 µL from reaction mixture + 100 µL quencher
(§8) solution; ISTD final concentration of 1.0 µM).

[2] = Mouse liver microsome stability; conditions: CD-1, mouse, microsomes
Description: as §1, §2, §3, §4, §5, §6, §7, §8

Human plasma stability = assay type: in vitro ADME; conditions: for remaining at 4 h, 3 μM / half-life at 3 μM: both sexes, human, plasma; for half-life at 3 μM: 37 °C, 240 min course, read-out: human plasma t1/2
Description: Human plasma (lithium heparin (LiHep) mixed, gender pooled, 0.2 μm filtered) and mouse plasma (BALB/C, LiHep mixed, male pooled, 0.2 μm filtered) were purchased from BioIVT. Procaine (Sigma-Aldrich) served as a positive control for both human and mouse plasma experiments. […] Next, the human or mouse plasma (994 μL) was aliquoted into 1.5 mL Eppendorf tubes with duplicates (reactions A and B) being prepared for each compound. The plasma was then incubated at 37 °C for 10 min. […] This procedure provided duplicate experiments with a final volume of 1000 μL (<0.2% organic solvent content) and a final test compound concentration of 3 μM. Aliquots (100 μL) were removed from each reaction mixture at 0, 30, 60, 120, and 240 min time intervals and quenched with 150 μL of cold ISTD solution (2 μM 7-ethoxy-d5-coumarin in MeOH). […] The positive control reaction was conducted at a final volume of 1000 μL for a single run of each time point. Finally, the negative control experiment was conducted with test compounds in Dulbecco’s phosphate buffered saline without calcium and magnesium (DPBS, Fisher Scientific, 143 μL) and analyzed at the 240 min time point.
Plasma Stability Assay Setup Example
Test Compound: 994 µL Human or Mouse Plasma + 6.0 µL TC (500 µM, Vial A).
994 µL Human or Mouse Plasma + 6.0 µL TC (500 µM, Vial B).
Positive Control: 994 µL Human or Mouse Plasma + 6.0 µL Procaine (500 µM).
Negative Control: 142 µL DPBS (1X, pH 7.1-7.3) + 0.9 µL TC (500 µM).
Quenching Mixture: 150 µL MeOH with ISTD (2 µM d5-7-ethoxycoumarin).
Final Volume After Quenching: 250 µL (100 µL from reaction mixture and 150 µL quencher
solution; ISTD final concentration of 1.2 µM).
Human Plasma Stability of Compound 2a at 37 °C
Figure S29. In vitro human plasma stability of 2a (5 points over 240 min) with procaine serving

[3] = relative percent remaining at 240 min
[4] = 3 μM compound, NADPH, 37 °C, 120 min course

SMILES	mean prodrug concentration in HepaRG cells (HepaRG cells; 0.5 h)	mean prodrug concentration in HepaRG cells (HepaRG cells; 1 h)	mean prodrug concentration in HepaRG cells (HepaRG cells; 2 h)	mean prodrug concentration in HepaRG cells (HepaRG cells; 3 h)	mean prodrug concentration in HepaRG cells (HepaRG cells; 5 h)	mean prodrug concentration in HepaRG cells (HepaRG cells; 7 h)	Cmax at 3 h, 20 μM (HepaRG cellular uptake)	HLM t1/2 ([1]; HLM 1 mg/mL, 3 μM compound, NADPH, 37 °C, 120 min course)	half-life at 3 μM [2]	remaining at 2 h, 3 μM [2]	remaining at 4 h, 3 μM (Human plasma stability; [3])	half-life at 3 μM (Human plasma stability)	human plasma % remaining (Human plasma stability; [3])	HepaRG Cmax (HepaRG cells)	remaining at 2 h, 3 μM [1]	half-life at 3 μM [1, 4]
CCCCCCCCCCCCCCCCSCCCOP(=O)(O)CO[C@H](C)Cn1cnc2c(N)ncnc21.N [2a]	467.27 ng/mL	530.17 ng/mL	676.9 ng/mL	827.97 ng/mL	1004.64 ng/mL	994.36 ng/mL	828 ± 0.2 ng/mL	0.7 h and 0.695 ± 0.0383 h	> 2 h	> 95%	95%	> 4 h	> 95%			
C[C@H](Cn1cnc2c(N)ncnc21)OCP(=O)(O)OCCCSCCCCCCCCCCCCc1ccc(F)cc1.N [16g]	124.04 ng/mL	162.75 ng/mL	178.18 ng/mL	209.81 ng/mL	203.98 ng/mL	229.08 ng/mL	210 ng/mL		> 2 h	88%	> 95%	> 4 h		209.8 ± 0.2 ng/mL	69%	> 2 h
C[C@H](Cn1cnc2c(N)ncnc21)OCP(=O)(O)OCCCSCCCCCCCCCCCCC1CCCCC1.N [16h]	896.16 ng/mL	911.53 ng/mL	1178.12 ng/mL	1412.37 ng/mL	1533.37 ng/mL	1616.17 ng/mL	1410 ng/mL		> 2 h	> 95%	> 95%	> 4 h		1412.4 ± 1.5 ng/mL	85%	> 2 h
